Key:
Type in all cases: functional
NCI/ADR-RES = assay: Cytotoxicity against human NCI/ADR-RES cells assessed as cell growth at 1 uM after 48 hrs by sulforhodamine B assay relative to control; settings: read-out: Activity
786-0 [1] = assay: Cytotoxicity against human 786-0 cells assessed as cell growth at 1 uM after 48 hrs by sulforhodamine B assay relative to control; settings: 786-0, 48 h, read-out: Activity
SN12C [2] = assay: Cytotoxicity against human SN12C cells assessed as cell growth at 1 uM after 48 hrs by sulforhodamine B assay relative to control; settings: read-out: Activity
SNB-19 = assay: Cytotoxicity against human SNB19 cells assessed as cell growth at 0.1 uM after 48 hrs by sulforhodamine B assay relative to control; settings: SNB-19, 48 h, read-out: Activity
KM12 [3] = assay: Cytotoxicity against human KM12 cells assessed as cell growth at 0.01 uM after 48 hrs by sulforhodamine B assay relative to control; settings: KM12, 48 h, read-out: Activity
SK-MEL-28 = assay: Cytotoxicity against human SK-MEL-28 cells assessed as growth inhibition after 48 hrs by sulforhodamine B assay; settings: SK-MEL-28, 48 h
SK-MEL-5 = assay: Cytotoxicity against human SK-MEL-5 cells assessed as cell growth at 100 uM after 48 hrs by sulforhodamine B assay relative to control; settings: SK-MEL-5, 48 h, read-out: Activity
OVCAR-3 = assay: Cytotoxicity against human OVCAR3 cells assessed as growth inhibition after 48 hrs by sulforhodamine B assay; settings: OVCAR-3, 48 h
T47D [4] = assay: Cytotoxicity against human T47D cells assessed as cell growth at 0.1 uM after 48 hrs by sulforhodamine B assay relative to control; settings: read-out: Activity
U-251 = assay: Cytotoxicity against human U251 cells assessed as cell growth at 0.01 uM after 48 hrs by sulforhodamine B assay relative to control; settings: U-251, 48 h, read-out: Activity
Hs-578T = assay: Cytotoxicity against human Hs 578T cells assessed as cell growth at 100 uM after 48 hrs by sulforhodamine B assay relative to control; settings: read-out: Activity
T47D [5] = assay: Cytotoxicity against human T47D cells assessed as cell growth at 0.01 uM after 48 hrs by sulforhodamine B assay relative to control; settings: read-out: Activity
TK-10 [6] = assay: Cytotoxicity against human TK10 cells assessed as cell growth at 0.1 uM after 48 hrs by sulforhodamine B assay relative to control; settings: TK-10, 48 h, read-out: Activity
MDA-MB-435 = assay: Cytotoxicity against human MDA-MB-435 cells assessed as cell growth at 1 uM after 48 hrs by sulforhodamine B assay relative to control; settings: MDA-MB-435, 48 h, read-out: Activity
SN12C [7] = assay: Cytotoxicity against human SN12C cells assessed as cell growth at 10 uM after 48 hrs by sulforhodamine B assay relative to control; settings: read-out: Activity
COLO 205 = assay: Cytotoxicity against human COLO205 cells assessed as cell growth at 1 uM after 48 hrs by sulforhodamine B assay relative to control; settings: COLO 205, 48 h, read-out: Activity
TK-10 [8] = assay: Cytotoxicity against human TK10 cells assessed as cell growth at 10 uM after 48 hrs by sulforhodamine B assay relative to control; settings: TK-10, 48 h, read-out: Activity
KM12 [9] = assay: Cytotoxicity against human KM12 cells assessed as cell growth at 1 uM after 48 hrs by sulforhodamine B assay relative to control; settings: KM12, 48 h, read-out: Activity
SF-268 = assay: Cytotoxicity against human SF268 cells assessed as cell growth at 100 uM after 48 hrs by sulforhodamine B assay relative to control; settings: SF-268, 48 h, read-out: Activity
786-0 [10] = assay: Cytotoxicity against human 786-0 cells assessed as cell growth at 10 uM after 48 hrs by sulforhodamine B assay relative to control; settings: 786-0, 48 h, read-out: Activity
PC-3 [11] = assay: Cytotoxicity against human PC3 cells assessed as cell growth at 0.1 uM after 48 hrs by sulforhodamine B assay relative to control; settings: PC-3, 48 h, read-out: Activity
CCRF-CEM [12] = assay: Cytotoxicity against human CCRF-CEM cells assessed as cell growth at 10 uM after 48 hrs by sulforhodamine B assay relative to control; settings: read-out: Activity
T47D [13] = assay: Cytotoxicity against human T47D cells assessed as growth inhibition after 48 hrs by sulforhodamine B assay
IGROV-1 = assay: Cytotoxicity against human IGROV1 cells assessed as cell growth at 1 uM after 48 hrs by sulforhodamine B assay relative to control; settings: IGROV-1, 48 h, read-out: Activity
SF-539 [14] = assay: Cytotoxicity against human SF539 cells assessed as cell growth at 1 uM after 48 hrs by sulforhodamine B assay relative to control; settings: SF-539, 48 h, read-out: Activity
HCC 2998 = assay: Cytotoxicity against human HCC2998 cells assessed as cell growth at 100 uM after 48 hrs by sulforhodamine B assay relative to control; settings: HCC 2998, 48 h, read-out: Activity
HCT-15 = assay: Cytotoxicity against human HCT15 cells assessed as cell growth at 100 uM after 48 hrs by sulforhodamine B assay relative to control; settings: HCT-15, 48 h, read-out: Activity
RPMI-8226 = assay: Cytotoxicity against human RPMI8226 cells assessed as cell growth at 10 uM after 48 hrs by sulforhodamine B assay relative to control; settings: RPMI-8226, 48 h, read-out: Activity
SN12C [15] = assay: Cytotoxicity against human SN12C cells assessed as cell growth at 0.1 uM after 48 hrs by sulforhodamine B assay relative to control; settings: read-out: Activity
NCI-H460 = assay: Cytotoxicity against human NCI-H460 cells assessed as cell growth at 0.1 uM after 48 hrs by sulforhodamine B assay relative to control; settings: NCI-H460, 48 h, read-out: Activity
PC-3 [16] = assay: Cytotoxicity against human PC3 cells assessed as growth inhibition after 48 hrs by sulforhodamine B assay; settings: PC-3, 48 h
CCRF-CEM [17] = assay: Cytotoxicity against human CCRF-CEM cells assessed as cell growth at 100 uM after 48 hrs by sulforhodamine B assay relative to control; settings: read-out: Activity
MDA-MB-468 = assay: Cytotoxicity against human MDA-MB-468 cells assessed as cell growth at 100 uM after 48 hrs by sulforhodamine B assay relative to control; settings: MDA-MB-468, 48 h, read-out: Activity
UACC-62 = assay: Cytotoxicity against human UACC62 cells assessed as cell growth at 1 uM after 48 hrs by sulforhodamine B assay relative to control; settings: UACC-62, 48 h, read-out: Activity
HCT-116 = assay: Cytotoxicity against human HCT116 cells assessed as cell growth at 0.01 uM after 48 hrs by sulforhodamine B assay relative to control; settings: HCT-116, 48 h, read-out: Activity
SF-539 [18] = assay: Cytotoxicity against human SF539 cells assessed as cell growth at 0.1 uM after 48 hrs by sulforhodamine B assay relative to control; settings: SF-539, 48 h, read-out: Activity

## COc1cc(C(=O)/C=C/c2cc(-c3ccc4c(c3)OCO4)n[nH]2)cc(OC)c1OC
NCI/ADR-RES
  growth at 1 µM: 94%
786-0 [1]
  growth at 1 µM: 98%
SN12C [2]
  growth at 1 µM: 90%
SNB-19
  growth at 0.1 µM: 93%
KM12 [3]
  growth at 0.01 µM: 97%
SK-MEL-28
  GI50: 1.92 µM
  LC50: 9.13 µM
  TGI: 4.18 µM
SK-MEL-5
  growth at 100 µM: -97%
OVCAR-3
  GI50: 1.71 µM
  LC50: 7.17 µM
  TGI: 3.5 µM
T47D [4]
  growth at 0.1 µM: 77%
U-251
  growth at 0.01 µM: 98%
Hs-578T
  growth at 100 µM: -22%
T47D [5]
  growth at 0.01 µM: 90%
TK-10 [6]
  growth at 0.1 µM: 92%
MDA-MB-435
  growth at 1 µM: 94%
SN12C [7]
  growth at 10 µM: -23%
COLO 205
  growth at 1 µM: 95%
TK-10 [8]
  growth at 10 µM: -18%
KM12 [9]
  growth at 1 µM: 93%
SF-268
  growth at 100 µM: -89%
786-0 [10]
  growth at 10 µM: -84%
PC-3 [11]
  growth at 0.1 µM: 95%
CCRF-CEM [12]
  growth at 10 µM: -26%
T47D [13]
  GI50: 1.51 µM
  LC50: 19.9 µM
  TGI: 4.63 µM
IGROV-1
  growth at 1 µM: 83%
SF-539 [14]
  growth at 1 µM: 68%
HCC 2998
  growth at 100 µM: -95%
HCT-15
  growth at 100 µM: -45%
RPMI-8226
  growth at 10 µM: -48%
SN12C [15]
  growth at 0.1 µM: 96%
NCI-H460
  growth at 0.1 µM: 100%
PC-3 [16]
  GI50: 1.51 µM
  LC50: 12.4 µM
  TGI: 4.02 µM
CCRF-CEM [17]
  growth at 100 µM: -20%
MDA-MB-468
  growth at 100 µM: -80%
UACC-62
  growth at 1 µM: 89%
HCT-116
  growth at 0.01 µM: 101%
SF-539 [18]
  growth at 0.1 µM: 97%

## COc1cc2c(cc1OC)C(=O)/C(=C/c1cc(-c3ccc4c(c3)OCO4)n[nH]1)C2
NCI/ADR-RES
  growth at 1 µM: 86%
786-0 [1]
  growth at 1 µM: 88%
SN12C [2]
  growth at 1 µM: 87%
SNB-19
  growth at 0.1 µM: 98%
KM12 [3]
  growth at 0.01 µM: 100%
SK-MEL-28
  GI50: 1.89 µM
  LC50: 6.09 µM
  TGI: 3.4 µM
SK-MEL-5
  growth at 100 µM: -97%
OVCAR-3
  GI50: 1.41 µM
  LC50: 5.58 µM
  TGI: 2.8 µM
T47D [4]
  growth at 0.1 µM: 95%
U-251
  growth at 0.01 µM: 97%
Hs-578T
  growth at 100 µM: -15%
T47D [5]
  growth at 0.01 µM: 92%
TK-10 [6]
  growth at 0.1 µM: 88%
MDA-MB-435
  growth at 1 µM: 93%
SN12C [7]
  growth at 10 µM: -96%
COLO 205
  growth at 1 µM: 94%
TK-10 [8]
  growth at 10 µM: -95%
KM12 [9]
  growth at 1 µM: 67%
SF-268
  growth at 100 µM: -73%
786-0 [10]
  growth at 10 µM: -98%
PC-3 [11]
  growth at 0.1 µM: 89%
CCRF-CEM [12]
  growth at 10 µM: -44%
T47D [13]
  GI50: 1.31 µM
  LC50: 5.62 µM
  TGI: 2.72 µM
IGROV-1
  growth at 1 µM: 86%
SF-539 [14]
  growth at 1 µM: 67%
HCC 2998
  growth at 100 µM: -94%
HCT-15
  growth at 100 µM: -69%
RPMI-8226
  growth at 10 µM: -59%
SN12C [15]
  growth at 0.1 µM: 93%
NCI-H460
  growth at 0.1 µM: 101%
PC-3 [16]
  GI50: 1.29 µM
  LC50: 6.6 µM
  TGI: 2.92 µM
CCRF-CEM [17]
  growth at 100 µM: -38%
MDA-MB-468
  growth at 100 µM: -86%
UACC-62
  growth at 1 µM: 89%
HCT-116
  growth at 0.01 µM: 105%
SF-539 [18]
  growth at 0.1 µM: 92%

## COc1cc(-c2cc(/C=C/C(=O)c3ccc(N)cc3)[nH]n2)cc(OC)c1OC
NCI/ADR-RES
  growth at 1 µM: 98%
786-0 [1]
  growth at 1 µM: 81%
SN12C [2]
  growth at 1 µM: 85%
SNB-19
  growth at 0.1 µM: 94%
KM12 [3]
  growth at 0.01 µM: 102%
SK-MEL-28
  GI50: 1.86 µM
  LC50: 8.93 µM
  TGI: 4.08 µM
SK-MEL-5
  growth at 100 µM: -94%
OVCAR-3
  GI50: 1.57 µM
  LC50: 7.26 µM
  TGI: 3.37 µM
T47D [4]
  growth at 0.1 µM: 85%
U-251
  growth at 0.01 µM: 98%
Hs-578T
  growth at 100 µM: 2%
T47D [5]
  growth at 0.01 µM: 83%
TK-10 [6]
  growth at 0.1 µM: 100%
MDA-MB-435
  growth at 1 µM: 88%
SN12C [7]
  growth at 10 µM: -45%
COLO 205
  growth at 1 µM: 92%
TK-10 [8]
  growth at 10 µM: 26%
KM12 [9]
  growth at 1 µM: 57%
SF-268
  growth at 100 µM: -80%
786-0 [10]
  growth at 10 µM: -19%
PC-3 [11]
  growth at 0.1 µM: 94%
CCRF-CEM [12]
  growth at 10 µM: -22%
T47D [13]
  GI50: 1.42 µM
  LC50: > 100 µM
  TGI: 4.3 µM
IGROV-1
  growth at 1 µM: 100%
SF-539 [14]
  growth at 1 µM: 69%
HCC 2998
  growth at 100 µM: -91%
HCT-15
  growth at 100 µM: -17%
RPMI-8226
  growth at 10 µM: -35%
SN12C [15]
  growth at 0.1 µM: 99%
NCI-H460
  growth at 0.1 µM: 102%
PC-3 [16]
  GI50: 2.21 µM
  LC50: > 100 µM
  TGI: 10.4 µM
CCRF-CEM [17]
  growth at 100 µM: -21%
MDA-MB-468
  growth at 100 µM: -65%
UACC-62
  growth at 1 µM: 86%
HCT-116
  growth at 0.01 µM: 95%
SF-539 [18]
  growth at 0.1 µM: 99%
